According to patent US20180153203A1, “(5R)-(ß-D-GLUCOPYRANOSYLOXY)-1,5-DIHYDRO-2H-PYRROL-2-ONE AS UMAMI MOLECULE” (priority 2015, published 2018):
Read-outs that look alike come from different tables or passages of the source.

Tests used:
[1] = system: sensory panel of 5 to 8 trained persons; conditions: comparison value for MSG, no source or test given; cited from earlier work
[2] = system: sensory panel of 5 to 8 trained persons; assay: Sensory panel tasting of umami intensity in water; format: in vivo, human; conditions: for Intense umami / No umami / Umami: water, count of tasters on 3-point umami scale; for threshold (umami) / threshold (umami), preferably: in water
Method: (§1) The sensory tests were performed in a sensory panel room at 20-25° C. The sensory panel consisted of 5 to 8 trained persons. The technical tasting was measured versus a control sample. Tasters were asked to judge the different products according to umami intensity on a 3-point scale (no umami, umami and intense umami). Additionally the tasters were asked to objectively describe the prototype with comments.
The stereoisomers have been tested to umami intensity as described in example 7.

[3] = system: sensory panel of 5 to 8 trained persons; assay: Sensory panel tasting in 0.2% sodium chloride and 0.04% sugar and 0.08% MSG; format: in vivo, human; conditions: 0.2% sodium chloride, count of tasters
Method: as §1

[4] = system: sensory panel of 5 to 8 trained persons; assay: Sensory panel tasting in 0.2% sodium chloride and 0.04% sugar; format: in vivo, human; conditions: for Intense umami / No umami / Umami: 0.2% sodium chloride and 0.04% sugar, count of tasters
Method: as §1

[5] = system: sensory panel of 5 to 8 trained persons; assay: Sensory panel tasting in 0.2% sodium chloride and 0.04% sugar and 0.015% IMP + GMP; format: in vivo, human; conditions: 0.2% sodium chloride, count of tasters
Method: as §1

[6] = system: sensory panel; assay: Sensory panel tasting of tomato soups; format: in vivo, human; conditions: tomato soup
Method: (5R)-(β-D-glucopyranosyloxy)-1,5-dihydro-2H-pyrrol-2-one was added at 500 mg/L (500 ppm) to the soups.

Question: Which “threshold (umami)” value [1] does the source give for `N[C@@H](CCC(=O)O)C(=O)[O-].[Na+]` [Monosodium glutamat] here?
Answer: 1500 µmol/L

Question: Which results are given for `O=C1C=C[C@@H](O[C@H]2O[C@H](CO)[C@@H](O)[C@H](O)[C@H]2O)N1` [alpha-R, (5R)-(α-D-glucopyranosyloxy)-1,5-dihydro-2H-pyrrol-2-one]?
Answer: Intense umami ([2]; C 200 mg/l): 0; No umami ([2]; C 200 mg/l): 5; Umami ([2]; C 200 mg/l): 0; Intense umami ([2]; C 400 mg/l): 0; No umami ([2]; C 400 mg/l): 5; Umami ([2]; C 400 mg/l): 0; Intense umami ([2]; C 800 mg/l): 0; No umami ([2]; C 800 mg/l): 5; Umami ([2]; C 800 mg/l): 0

Question: Which results are given for `O=C1C=C[C@H](O[C@H]2O[C@H](CO)[C@@H](O)[C@H](O)[C@H]2O)N1` [alpha-S, (5S)-(α-D-glucopyranosyloxy)-1,5-dihydro-2H-pyrrol-2-one]?
Answer: Intense umami ([2]; C 100 mg/l): 0; No umami ([2]; C 100 mg/l): 5; Umami ([2]; C 100 mg/l): 0; Intense umami ([2]; C 250 mg/l): 0; No umami ([2]; C 250 mg/l): 4; Umami ([2]; C 250 mg/l): 1; Intense umami ([2]; C 500 mg/l): 0; No umami ([2]; C 500 mg/l): 5; Umami ([2]; C 500 mg/l): 0

Question: For `O=C1C=C[C@H](O[C@@H]2O[C@H](CO)[C@@H](O)[C@H](O)[C@H]2O)N1` [beta-S, (5S)-(β-D-glucopyranosyloxy)-1,5-dihydro-2H-pyrrol-2-one], which Intense umami ([2]; C 100 mg/l) is on record?
Answer: 0

Question: And the No umami ([2]; C 100 mg/l)?
Answer: 5

Question: What about the Umami ([2]; C 100 mg/l) of the same compound?
Answer: 0

Question: And the Intense umami ([2]; C 200 mg/l)?
Answer: 0

Question: What about the No umami ([2]; C 200 mg/l) of the same compound?
Answer: 5

Question: And the Umami ([2]; C 200 mg/l)?
Answer: 0

Question: What about the Intense umami ([2]; C 500 mg/l) of the same compound?
Answer: 0

Question: What about the No umami ([2]; C 500 mg/l) of the same compound?
Answer: 4

Question: What about the Umami ([2]; C 500 mg/l) of the same compound?
Answer: 1

Question: Which Intense umami ([3]; C 200 mg/l) does the source give for “(5R)-(β-D-glucopyranosyloxy)-1,5-dihydro-2H-pyrrol-2-one” here?
Answer: 5

Question: And the No umami ([3]; C 200 mg/l)?
Answer: 0

Question: What about the Umami ([3]; C 200 mg/l) of the same compound?
Answer: 1

Question: And the Intense umami ([3]; C 500 mg/l)?
Answer: 3

Question: And the No umami ([3]; C 500 mg/l)?
Answer: 0

Question: And the Umami ([3]; C 500 mg/l)?
Answer: 3

Question: What about the Intense umami ([4]; C 200 mg/l) of the same compound?
Answer: 0

Question: What about the No umami ([4]; C 200 mg/l) of the same compound?
Answer: 3

Question: What about the Umami ([4]; C 200 mg/l) of the same compound?
Answer: 4

Question: And the Intense umami ([4]; C 500 mg/l)?
Answer: 2

Question: What about the No umami ([4]; C 500 mg/l) of the same compound?
Answer: 2

Question: And the Umami ([4]; C 500 mg/l)?
Answer: 3

Question: And the umami enhancing property ([4]; conclusion from Table 2, table 3 and table 4 (salt/sugar base, with MSG, with IMP + GMP))?
Answer: shows the umami enhancing property

Question: And the Intense umami ([5]; C 200 mg/l)?
Answer: 0

Question: What about the No umami ([5]; C 200 mg/l) of the same compound?
Answer: 4

Question: What about the Umami ([5]; C 200 mg/l) of the same compound?
Answer: 3

Question: What about the Intense umami ([5]; C 500 mg/l) of the same compound?
Answer: 0

Question: And the No umami ([5]; C 500 mg/l)?
Answer: 3

Question: And the Umami ([5]; C 500 mg/l)?
Answer: 4

Question: And the “tomato soups with and without the compound, perceived difference” value ([6]; 500 mg/L (500 ppm))?
Answer: perceived as significantly different

Question: What about the “savory, umami taste of tomato soups” value ([6]; 500 ppm) of the same compound?
Answer: increased significantly

Question: What about the “threshold (umami)” value ([2]; corresponding to 250 mg/l) of the same compound?
Answer: 957 µmol/L

Question: And the “threshold (umami), preferably” value ([2]; corresponding to 500 mg/l)?
Answer: 1914 µmol/L

Question: And the “threshold (umami)” value ([2]; from Table 1)?
Answer: 250 mg/L

Question: And the “threshold (umami), preferably” value ([2]; from Table 1, 'preferably')?
Answer: 500 mg/L

Question: And the Intense umami ([2]; C 100 mg/l)?
Answer: 0

Question: What about the No umami ([2]; C 100 mg/l) of the same compound?
Answer: 5

Question: And the Umami ([2]; C 100 mg/l)?
Answer: 3

Question: What about the Intense umami ([2]; C 250 mg/l) of the same compound?
Answer: 1

Question: And the No umami ([2]; C 250 mg/l)?
Answer: 3

Question: And the Umami ([2]; C 250 mg/l)?
Answer: 4

Question: And the Intense umami ([2]; C 500 mg/l)?
Answer: 1

Question: What about the No umami ([2]; C 500 mg/l) of the same compound?
Answer: 1

Question: What about the Umami ([2]; C 500 mg/l) of the same compound?
Answer: 6
